Consider 16 compounds from US5010086A, “Imidazopyridines, compositions and use” (Sterling Drug Inc., priority 1990, dated 1991).

Type in all cases: biochemical, canine
For test [1], the system named is PDE I. As to the kind of experiment: phosphodiesterase inhibition, PDE I (peak I PDE). To be noted: for IC50: peak I PDE. The source says: (§1) Multiple isozymic forms of cyclic nucleotide phosphodiesterase (PDE) exist in most tissues. […] A "low Km" cGMP form of PDE (also referred to as peak I PDE) also has been identified. Increases in cAMP and cGMP will relax both vascular smooth and bronchial smooth muscle. Selective PDE isozyme inhibition represents a novel subcellular mechanism by which increses in cAMP or cGMP and subsequent vaso- or broncho-relaxation may be achieved. Moreover, a component of positive inotropy may be retained, dependent upon the isozyme or tissue source specificity of an inhibitor. Thus, development of PDE isozyme inhibitors represents novel approaches for the discovery of agents useful for treating hypertension, congestive heart failure or asthma. For example, compounds having essentially high PDE III inhibitory activity are expected to have cardiotonic and vasodilatory (antihypertensive) activity. PDE isozymes (peak I and III) are isolated from canine aortic smooth, ventricular or tracheal smooth muscle sources by DEAE - cellulose column chromatography. Inhibition of both peaks by a putative inhibitor from any of these sources is quantitated. If ≥50% inhibition is detected at 30 μM, then an IC50 value and corresponding 95% confidence limits for both peaks is determined.
(§2) The procedures for the separation of the isozymes of PDE from animal tissue and the testing of the compounds of the invention for phosphodiesterase inhibition are essentially those described by Weishaar et al., Biochem. Pharmacol. 35:787-800 (1986) and Thompson et al., Adv. Cyclic Nucleotide Res. 10:69-92. Initial screening of test compounds with both peak I and peak III PDE isozymes is done at a concentration of 10, 30 or 100 μm, and each assay is performed in triplicate for each inhibitor. The IC50 values (concentration causing 50% inhibition) are then calculated from concentration-response curves as described by Tallarida and Murray, Manual of Pharmacologic Calculations with Computer Programs, Procedure 8, Graded Dose-Response, pp. 14-19, Springer-Verlag, New York, 1981.

Test [2] addresses T1, PDE III (Canis lupus familiaris, UniProt A0A8I3NYE0).
T1 construct: isolated from canine aortic smooth, ventricular or tracheal smooth muscle sources; from tissue; host or cells: canine aortic smooth, ventricular or tracheal smooth muscle; DEAE-cellulose peak III
T1 sequence (A0A8I3NYE0 1-1135): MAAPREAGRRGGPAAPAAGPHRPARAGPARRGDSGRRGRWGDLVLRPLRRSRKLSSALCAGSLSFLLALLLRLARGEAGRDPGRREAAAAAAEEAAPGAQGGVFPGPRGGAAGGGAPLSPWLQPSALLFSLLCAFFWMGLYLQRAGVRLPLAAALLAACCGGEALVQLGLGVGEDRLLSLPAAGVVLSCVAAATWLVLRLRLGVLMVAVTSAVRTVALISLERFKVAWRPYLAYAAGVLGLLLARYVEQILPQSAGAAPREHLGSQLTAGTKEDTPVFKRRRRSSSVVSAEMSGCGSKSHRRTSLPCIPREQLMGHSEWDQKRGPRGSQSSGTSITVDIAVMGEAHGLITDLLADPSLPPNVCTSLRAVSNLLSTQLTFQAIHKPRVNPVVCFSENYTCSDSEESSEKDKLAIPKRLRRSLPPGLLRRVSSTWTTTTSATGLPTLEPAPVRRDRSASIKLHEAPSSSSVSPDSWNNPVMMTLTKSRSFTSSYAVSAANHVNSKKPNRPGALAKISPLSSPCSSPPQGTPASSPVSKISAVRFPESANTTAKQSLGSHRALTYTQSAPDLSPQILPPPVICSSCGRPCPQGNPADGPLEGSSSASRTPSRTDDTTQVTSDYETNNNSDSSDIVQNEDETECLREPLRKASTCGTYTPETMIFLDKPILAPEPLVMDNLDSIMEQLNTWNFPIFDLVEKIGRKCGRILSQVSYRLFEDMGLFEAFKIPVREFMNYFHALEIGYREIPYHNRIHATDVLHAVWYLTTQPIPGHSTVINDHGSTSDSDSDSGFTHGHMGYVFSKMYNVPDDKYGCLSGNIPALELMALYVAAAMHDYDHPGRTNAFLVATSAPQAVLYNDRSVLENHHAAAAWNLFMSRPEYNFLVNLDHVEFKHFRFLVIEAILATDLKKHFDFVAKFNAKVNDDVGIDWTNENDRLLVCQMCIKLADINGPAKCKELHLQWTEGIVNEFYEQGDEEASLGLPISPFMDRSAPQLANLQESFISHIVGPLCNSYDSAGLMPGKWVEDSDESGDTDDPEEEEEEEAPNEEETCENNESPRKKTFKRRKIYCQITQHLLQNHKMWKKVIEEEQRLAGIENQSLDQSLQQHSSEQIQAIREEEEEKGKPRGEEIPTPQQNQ
As to the kind of experiment: phosphodiesterase inhibition, PDE III (peak III PDE). The settings on record: read-out: Percent Inhibition PDE III.

Test [3] has as its target T1, PDE III. The test is described as above.
Description: as §1, §2

For test [4], the system named is PDE I. As to the kind of experiment: phosphodiesterase inhibition, PDE I (peak I PDE).

In general, inhibition refers to the share of the control response that was lost under treatment. `O=c1[nH]c2cc(-c3ccnc4ccccc34)c(C(F)(F)F)nc2[nH]1` [3(e), 1,3-Dihydro-6-(4-quinolinyl)-5-trifluoromethyl-2H-imidazo[4,5-b]pyridine-2-one]: the “Percent Inhibition PDE I” value in the test with PDE I [1] (at 100 μM) was 4%. Moreover, the inhibition at 1 µM on PDE III [2] stood at 9%.
As a reminder, the IC50 is the concentration at which inhibition is half-maximal. For `CCCNC(=O)Nc1ccc(-c2cc3[nH]c(=O)[nH]c3nc2C)cc1` [Example 15, 1,3-Dihydro-6-[4-(N'-propylureido)phenyl]-5-methyl-2H-imidazo[4,5-b]pyridin-2-one], the values for the IC50 against PDE III [3] and at PDE I [1] were 104 nM and 319000 nM, respectively.
As to `Cc1nc2[nH]c(=O)[nH]c2cc1-c1ccc([N+](=O)[O-])cc1` [Example 5, 1,3-Dihydro-5-methyl-6-(4-nitrophenyl)-2H-imidazo[4,5-b]pyridin-2-one], in the test with PDE I [4] (at 300 μM), the “Percent Inhibition PDE I” value came out at 35%. The compound further had an IC50 against PDE III [3] of 9 nM.
`Cc1ccc(S(=O)(=O)Nc2ccc(-c3cc4[nH]c(=O)[nH]c4nc3C)cc2)cc1` [Example 12, 1,3-Dihydro-5-methyl-6-[4-(p-toluenesulfonylamino)phenyl]-2H-imidazo[4,5-b]pyridin-2-one]: the “Percent Inhibition PDE I” value in the test on PDE I [4] (at 1 μM) is listed as 13%. On PDE III [2], the inhibition at 1 µM turned out to be 64%.
As to `CCCCCCS(=O)(=O)Nc1ccc(-c2cc3[nH]c(=O)[nH]c3nc2C)cc1` [Example 13, 1,3-Dihydro-6-[4-(hexanesulfonylamino)phenyl]-5-methyl-2H-imidazo[4,5-b]pyridin-2-one], the values for the IC50 against PDE III [3] and on PDE I [1] were 53 nM and 5600 nM, respectively.
Regarding `Cc1nc2[nH]c(=O)[nH]c2cc1-c1ccc(NS(=O)(=O)c2cccc3cccnc23)cc1` [Example 14, 1,3-Dihydro-6-[4-(8-quinolinylsulfonylamino)phenyl]-5-methyl-2H-imidazo[4,5-b]pyridin-2-one], the IC50 on PDE III [3] is 55 nM; against PDE I [1], 1600 nM.
Compound `CC(=O)Nc1ccc(-c2cc3[nH]c(=O)[nH]c3nc2C)cc1` [Example 8, 6-[4-(Acetylamino)phenyl]-1,3-dihydro-5-methyl-2H-imidazo[4,5-b]pyridin-2-one] came in with a 50% inhibitory concentration (IC50) at PDE III [3] of 620 nM. For the same compound, the “Percent Inhibition PDE I” value in the test with PDE I [1] (at 30 μM) stood at 22%.
In the case of `CCCCC(=O)Nc1ccc(-c2cc3[nH]c(=O)[nH]c3nc2C)cc1` [Example 11, 6-[4-(Butanecarbonylamino)phenyl]-1,3-dihydro-5-methyl-2H-imidazo[4,5-b]pyridin-2-one], in the test with PDE I [4] (at 1 μM), the “Percent Inhibition PDE I” value came to 0%. Moreover, on PDE III [2], the inhibition at 1 µM came out at 37%.
With `CCCCS(=O)(=O)Nc1ccc(-c2cc3[nH]c(=O)[nH]c3nc2C)cc1` [Example 10, 6-[4-(Butanesulfonylamino)phenyl]-1,3-dihydro-5-methyl-2H-imidazo[4,5-b]pyridin-2-one], the IC50 at PDE III [3] was 94 nM; at PDE I [1], 9000 nM.
As to `Cc1nc2[nH]c(=O)[nH]c2cc1-c1ccc(NC(=O)C(F)(F)F)cc1` [Example 7, 1,3-Dihydro-5-methyl-6-[4-(trifluoroacetylamino)phenyl]-2H-imidazo[4,5-b]pyridin-2-one], the IC50 is 630 nM against PDE III [3] and 63600 nM on PDE I [1].
`Cc1nc2[nH]c(=O)[nH]c2cc1-c1ccccc1` [4(c), 1,3-Dihydro-5-methyl-6-phenyl-2H-imidazo[4,5-b]pyridin-2-one]: in the test on PDE I [4] (at 1000 μM), the “Percent Inhibition PDE I” value turned out to be 38%. The compound also registered an IC50 on PDE III [3] of 270 nM.
Turning to `Cc1nc2[nH]c(=O)[nH]c2cc1-c1ccc(N)cc1` [Example 6, 6-(4-Aminophenyl)-1,3-dihydro-5-methyl-2H-imidazo[4,5-b]pyridin-2-one], the results for the IC50 against PDE III [3] and at PDE I [1] were 500 nM and 45000 nM, respectively.
The like results for `O=c1[nH]c2cc(-c3ccncc3)c(C(F)(F)F)nc2[nH]1` [1(e), 1,3-Dihydro-6-(4-pyridinyl)-5-trifluoromethyl-2H-imidazo[4,5-b]pyridin-2-one] were, in that order, 23 nM and 52900 nM.
Take `O=c1[nH]c2cc(-c3ccncc3)c(C(F)(F)C(F)(F)F)nc2[nH]1` [2(d), 1,3-Dihydro-6-(4-pyridinyl)-5-pentafluoroethyl-2H-imidazo[4,5-b]pyridin-2-one]: the IC50 was 1800 nM at PDE III [3] and 12000 nM against PDE I [1].
For `Cc1nc2[nH]c(=O)[nH]c2cc1-c1ccc(NS(C)(=O)=O)cc1` [Example 9, 1,3-Dihydro-6-[4-(methanesulfonylamino)phenyl]-5-methyl-2H-imidazo[4,5-b]pyridin-2-one], the results for the IC50 against PDE III [3] and against PDE I [1] were 470 nM and 45000 nM, respectively.
Take `O=c1[nH]c2cc(-c3cc[n+]([O-])cc3)c(C(F)(F)F)nc2[nH]1` [1(f), 1,3-Dihydro-6-(4-pyridinyl)-5-trifluoromethyl-2H-imidazo[4,5-b]pyridin-2-one N-(py)-oxide]: the “Percent Inhibition PDE I” value in the test with PDE I [4] (at 1 μM) is on record as 0%. Moreover, the half-inhibitory concentration (IC50) against PDE III [3] was found to be 29 nM.
